Results on two compounds are retold here after patent publication US20040191168A1, “Tumor cell killing by cell cycle checkpoint abrogation combined with Inhibition of the classical mitogen activated protein (map) kinase pathway” (priority 2000, published 2004).

For one experiment, the system named is U937 cells. Kind of experiment: Loss of mitochondrial membrane potential (reduced DiOC6 uptake, flow cytometry) in U937 cells. It is filed as cell-based, human. The following applies: 18 h, PD184352 10 μM, GFX 1 μM, safingol 2 μM, mean ± SD. On the procedure: Experimental Format. All of the experiments were performed using logarithmically growing cells (3-5×10^5 cells/ml). Cell suspensions were placed in sterile 25 cm^2 T-flasks (Corning, Corning, N.Y.) and incubated with MEK or PKC inhibitors for 30 min at 37° C. At the end of this period, UCN-01 (or in some cases, caffeine) was added to the suspension, and the flasks were placed in 37° C./5% CO2 incubator at various intervals, generally 18 h. In some studies, the p38 MAP kinase inhibitor SB203580 was added concurrently with MEK inhibitors. After drug treatment, cells were harvested and subjected to further analysis as described below.
Analysis of Mitochondrial Membrane Potential (ΔΨm). Cells 2×10^5 were incubated with 40 nM DiOC6 (Molecular Probes Inc., Eugene, Oreg.) in PBS at 37° C. for 20 min and then analyzed by flow cytometry as described previously (Wang et al., 1999).
(In general: In flow cytometry, cells or beads pass a laser one at a time.)

Another experiment deals with DU145 cells. As to the kind of experiment: Colony forming (clonogenic) assay in DU145 cells. It is filed as cell-based, human. To be noted: 25 μM PD98059, 150 nM UCN-01, replated 48 h, ± SEM. On the procedure:
Colony forming (clonogenic) assay. Cells were plated 36 h prior to experimentation. Cells were pre-treated with MEK1/2 inhibitor as indicated, 2 h prior to exposure. Cells were irradiated (2 Gy). After a further 48 h, cells were isolated by tryptic digestion and single cell suspensions plated on Linbro® plates at densities of 500 cells/well and 1000 cells/well. Colony formation was defined as a colony of 50 cells or greater, 10 days after plating.

SMILES strings stand for the structures. “And” between values parts separate entries of the source, which are not always exact repeats. Equal entries are not always repeated.

`O=C(NOCC1CC1)c1ccc(F)c(F)c1Nc1ccc(I)cc1Cl` [PD184352]: the “"Low" DiOC6 (% cells)” value with U937 cells is 12.1 ± 0.2% and 14.7 ± 1.0%.

For the compound `CN[C@@H]1C[C@H]2O[C@@](C)([C@@H]1OC)n1c3ccccc3c3c4c(c5c6ccccc6n2c5c31)C(=O)N[C@H]4O` [UCN-01, 7-hydroxystaurosporine], the “clonogenic survival (colonies, normalized to control unirradiated cells = 100%)” value turned out to be 68 ± 2% with DU145 cells (DU145, 2 Gy) and 82 ± 4% in the experiment on DU145 cells (DU145, mock irradiated).
